From patent US20220074941A1, “HSP90 COMBINATION THERAPY” (Sloan-Kettering Institute for Cancer Research, priority 2011, published 2022)

Columns and labels:
[1] = system: patients with advanced pancreatic cancer; details: cited from earlier work
[2] = system: HCC1937 breast cancer cells; assay: Clonogenic survival, combination with PU-H71; format: cell-based
Text: (§1) Specifically, among the Hsp90-regulated pathways identified in the K562 CML cells, MDA-MB-468 breast cancer cells and the Mia-PaCa-2 pancreatic cancer cells are several involved in DNA damage, replication and repair response and/or homologous recombination (Tables 3, 5a-5f). Hsp90 inhibition may synergize or be additive with agents that act on DNA damage and/or homologous recombination (i.e. potentiate DNA damage sustained post treatment with IR/chemotherapy or other agents, such as PARP inhibitors that act on the proteins that are important for the repair of double-strand DNA breaks by the error-free homologous recombinational repair pathway).

[3] = system: MDA-MB-468 breast cancer cells; assay: Clonogenic survival, combination with PU-H71; format: cell-based; details: MDA-MB-468, combination with PU-H71
Text: as §1

DLBCL cell lines = details: literature; cited from earlier work
[4] = system: Hsp90 from SKBr3 cellular extracts; assay: Fluorescence polarization (FP) competition assay with GM-cy3B; format: binding; details: FP competition with GM-cy3B, SKBr3 lysate, 4° C. for 24 h; read-out: IC50 (nM), binding affinity for Hsp90 from SKBr3 cellular extracts
Text: The attachment of small molecules to a solid support is a very useful method to probe their target and the target's interacting partners. […] Perhaps the most crucial aspects in designing such chemical probes are determining the appropriate site for attachment of the small molecule ligand, and designing an appropriate linker between the molecule and the solid support. Our strategy to design Hsp90 chemical probes entails several steps. First, in order to validate the optimal linker length and its site of attachment to the Hsp90 ligand, the linker-modified ligand was docked onto an appropriate X-ray crystal structure of Hsp90α. Second, the linker-modified ligand was evaluated in a fluorescent polarization (FP) assay that measures competitive binding to Hsp90 derived from a cancer cell extract. […] These steps are important to ensure that the solid-support immobilized molecules maintain a strong affinity for Hsp90. Finally, the linker-modified small molecule was attached to the solid support, and its interaction with Hsp90 was validated by incubation with an Hsp90-containing cell extract.
Briefly, FP measurements were performed on an Analyst GT instrument (Molecular Devices, Sunnyvale, Calif.). […] Drugs were added in triplicate wells. […] The assay plate was incubated on a shaker at 4° C. for 24 h and the FP values in mP were measured. The fraction of tracer bound to Hsp90 was correlated to the mP value and plotted against values of competitor concentrations. […] All experimental data were analyzed using SOFTmax Pro 4.3.1 and plotted using Prism 4.0 (Graphpad Software Inc., San Diego, Calif.).

[5] = target: T1, cell surface Hsp90 in MV4-11 leukemia cells (Homo sapiens, UniProt P07900); assay: Flow cytometry detection of cell surface Hsp90 with PU-H71-biotin; format: cell-based; details: MV4-11 cells, 2 h at 37° C., SA-PE staining
T1 construct: specifically detect Hsp90 when expressed on the cell surface; endogenous in cells; host or cells: MV4-11 live cells
Text: FIGS. 29a and 29b. A) Hsp90-containing protein complexes from the brains of JNPL3 mice, an Alzheimer's disease transgenic mouse model, isolated through chemical precipitation with beads containing a streptavidin-immobilized PU-H71-biotin construct or control streptavidin-immobilized D-biotin. Aberrant tau species are indicated by arrow. c1, c2 and s1, s2, cortical and subcortical brain homogenates, respectively, extracted from 6-month-old female JNPL3 mice (Right). Western blot analysis of brain lysate protein content (Left). B) Cell surface Hsp90 in MV4-11 leukemia cells as detected by PU-H71-biotin. The data are consistent with those obtained from multiple repeat experiments (n 2′: 2).
Cells were then analyzed using the BD-LSRII flow cytometer. Mean fluorescence intensity (MFI) was used to calculate the binding of PU-H71-biotin to cells and values were normalized to the MFI of untreated cells stained with SA-PE.

[6] = system: Hsp90 in MDA-MB-468 cells; assay: 131I-PU-H71 saturation binding in intact cells and Hsp90 quantification
Description: FIGS. 4a-4c. […] Lysate=control cell extract. […] The amount of Hsp90 in each pool was quantified by densitometry and values were normalized to an internal standard. […] Representative data of four separate repeats is presented (lower). Expression of Hsp90 in the indicated cells was analyzed by Western blot (upper).
The solutions were shaken in an orbital shaker and after 1 hr the cells were isolated and washed with ice cold Tris-buffered saline using a Brandel cell harvester. […] To calculate the percentage of Hsp90, cellular Hsp90 expression was quantified by using standard curves created of recombinant Hsp90 purified from HeLa cells (Stressgen #ADI-SPP-770).

Mia-PaCa-2 cells = assay: Alamar Blue cell growth assay; format: cell-based, human; details: Mia-PaCa-2, 72 h
Description: (§2) FIGS. 7a-7g. PU-H71 identified proteins and networks are those important for the malignant phenotype. (a) K562 cells were treated for 72 h with the indicated inhibitors and cell growth analyzed by the Alamar Blue assay. Data are presented as means±SD (n=3). (b) Sequential chemical-precipitations, as indicated, were conducted in K562 extracts with the PU-beads at the indicated frequency. Proteins in the pull-downs and in the remaining supernatant were analyzed by WB. (c) The effect of CARMI knock-down on cell viability using Tryptan blue (left) or Acridine orange/Ethidium bromide (right) stainings was evaluated in K562 cells. (d) The expression of select potential Hsp90-interacting proteins was analyzed by WB in K562 leukemia and Mia-PaCa-2 pancreatic cancer cells. […] Proteins in the pull-downs were analyzed by WB. (g) The effect of select inhibitors on Mia-PaCa-2 cell growth was analyzed as in panel (a).
(§3) Viability assessment in K562 cells untransfected or transfected with CARMI shRNA or scramble was performed using Trypan Blue. […] Apoptosis analysis was assessed using fluorescence microscopy by mixing 2 μL of acridine orange (100 μg/mL), 2 μL of ethidium bromide (100 μg/mL), and 20 μL of the cell suspension. A minimum of 200 cells was counted in at least five random fields. […] Results were analyzed using the Softmax Pro and the GraphPad Prism softwares. […]

K562 cells [7] = assay: Alamar Blue cell growth assay; format: cell-based; details: K562, 72 h
Description: as §2, §3

K562 cells [8] = assay: Western blot of proteins in treated K562 cells; format: cell-based; details: PU-H71 5 μM or Gleevec 0.5 μM, time course
Description: FIGS. 5a-5f. […] (a) Hsp90 complexes in K562 extracts were isolated by precipitation with H9010, a non-specific IgG, or by PU-H71- or Control-beads. Control beads contain ethanolamine, an Hsp90-inert molecule. Proteins in pull-downs were analyzed by Western blot. (b,c) Single or sequential immuno- and chemical-precipitations, as indicated, were conducted in K562 extracts with H9010 and PU-beads at the indicated frequency and in the shown sequence. Proteins in the pull-downs and in the remaining supernatant were analyzed by WB. NS=non-specific. […] (e) Expression of proteins in Hsp70-knocked-down cells was analyzed by Western blot (left) and changes in protein levels presented in relative luminescence units (RLU) (right). Control=scramble siRNA. […] Proteins in the pull-downs and in the remaining supernatant were analyzed by Western blot. […]
FIGS. 8a-8h. […] Proteins in the pull-downs and in the remaining supernatant were analyzed by WB. […] Proteins were analyzed by WB (upper), quantified by densitometry and graphed against treatment time (lower). […] (f) Quantitative chromatin immunoprecipitation assays (QChIP) performed with STAT5 or Hsp90 antibodies vs. IgG control for two known STAT5 target genes (CCND2 and […]).
Protein concentrations were determined using BCA kit (Pierce) according to the manufacturer's instructions. […]

Nc1ccn([C@@H]2O[C@H](CO)[C@@H](O)C2(F)F)c(=O)n1 [gemcitabine]
median survival [1]: approximately 6 months

O=C(c1cc(Cc2n[nH]c(=O)c3ccccc23)ccc1F)N1CCN(C(=O)C2CC2)CC1 [olaparib]
drug interaction with PU-H71 in inhibiting clonogenic survival [2]: synergizes | drug interaction with PU-H71 in inhibiting clonogenic survival [3]: synergizes

C=CC(=O)N1CCC[C@@H](n2nc(-c3ccc(Oc4ccccc4)cc3)c3c(N)ncnc32)C1 [PCI-32765]
effect on DLBCL cell lines (DLBCL cell lines): potently kills DLBCL cell lines

Nc1ncnc2c1nc(Sc1cc3c(cc1I)OCO3)n2CCCNCCOCCOCCOCCNC(=O)CCCC[C@@H]1SC[C@@H]2NC(=O)N[C@@H]21 [Compound 7]
IC50 [4]: 67.1 nM | detection of Hsp90 on the cell surface [5]: can detect Hsp90 expression on the surface of leukemia cells

CC(C)NCCCn1c(Sc2cc3c(cc2[131I])OCO3)nc2c(N)ncnc21 [^131I-PU-H71]
available cellular binding sites bound at saturation [6]: ≤ 5.5×10^6 sites per cell | fraction of the total cellular Hsp90 bound [6]: 26.6-33.5%

CC(C)n1nc(-c2cc3cc(O)ccc3[nH]2)c2c(N)ncnc21 [PP242]
effect on cell growth (Mia-PaCa-2 cells): toxic to both cells | effect on cell growth (K562 cells [7]): toxic to both cells

CC1(C)CC(=O)c2c(C(F)(F)F)nn(-c3ccc(C(N)=O)c(N[C@H]4CC[C@H](NC(=O)CCCCCN)CC4)c3)c2C1 [Compound 20, 2-(trans-4-(6-Aminohexanamido)cyclohexylamino)-4-(6,6-dimethyl-4-oxo-3-(trifluoromethyl)-4,5,6,7-tetrahydro-1H-indazol-1-yl)benzamide]
IC50 [4]: 24.7 nM

NS(=O)(=O)OC[C@@H]1C[C@@H](n2ccc3c(N[C@H]4CCc5ccccc54)ncnc32)C[C@@H]1O [MLN4924]
effect on DLBCL cell lines (DLBCL cell lines): induces apoptosis in ABC DLBCL

Cc1ccc(NC(=O)c2ccc(CN3CCN(C)CC3)cc2)cc1Nc1nccc(-c2cccnc2)n1 [Gleevec]
effect on cell growth (Mia-PaCa-2 cells): toxic only to K562 cells | STAT5 phosphorylation (p-STAT5 levels) (K562 cells [8]): rapidly decreased | effect on cell growth (K562 cells [7]): toxic only to K562 cells
